The values below come from patent US9884868B2, “TGF-beta inhibitors” (Rigel Pharmaceuticals, Inc., priority 2015, dated 2018).

SMILES strings stand for the structures. Bounds are passed on as bounds.

One test deals with HIS-TGF-βR1 T204D (Homo sapiens (Human), UniProt P36897, T204D). Briefly: HTRF probe displacement assay with HIS-TGF-βR1 T204D. Particulars: read-out: TGFbr1 IC50; HTRF probe displacement, 1 nM HIS-TGF-βR1 T204D, 1 hour at room temperature. For orientation: TR-FRET usually uses a lanthanide donor and a delayed reading to cut background.
HIS-TGF-βR1 T204D, sequence (P36897 34-503 T204D): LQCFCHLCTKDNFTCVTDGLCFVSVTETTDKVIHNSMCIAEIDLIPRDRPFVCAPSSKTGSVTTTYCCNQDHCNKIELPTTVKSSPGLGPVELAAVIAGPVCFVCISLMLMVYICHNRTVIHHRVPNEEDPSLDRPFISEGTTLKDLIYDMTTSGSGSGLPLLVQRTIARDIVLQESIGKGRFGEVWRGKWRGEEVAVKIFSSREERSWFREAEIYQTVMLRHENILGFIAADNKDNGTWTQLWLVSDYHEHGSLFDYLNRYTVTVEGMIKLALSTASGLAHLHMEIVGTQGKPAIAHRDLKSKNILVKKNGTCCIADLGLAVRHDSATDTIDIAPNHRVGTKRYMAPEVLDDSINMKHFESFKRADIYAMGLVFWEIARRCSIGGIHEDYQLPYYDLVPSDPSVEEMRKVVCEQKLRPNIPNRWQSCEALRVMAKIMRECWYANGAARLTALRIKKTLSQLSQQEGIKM
Another test deals with HIS-TGF-βR2 WT (Homo sapiens (Human), UniProt P37173). Briefly: HTRF probe displacement assay with HIS-TGF-βR2 WT. Particulars: read-out: TGFBr2 IC50; HTRF probe displacement, 1 nM HIS-TGF-βR2 WT, 1 hour at room temperature.
HIS-TGF-βR2 WT, sequence (P37173 23-567): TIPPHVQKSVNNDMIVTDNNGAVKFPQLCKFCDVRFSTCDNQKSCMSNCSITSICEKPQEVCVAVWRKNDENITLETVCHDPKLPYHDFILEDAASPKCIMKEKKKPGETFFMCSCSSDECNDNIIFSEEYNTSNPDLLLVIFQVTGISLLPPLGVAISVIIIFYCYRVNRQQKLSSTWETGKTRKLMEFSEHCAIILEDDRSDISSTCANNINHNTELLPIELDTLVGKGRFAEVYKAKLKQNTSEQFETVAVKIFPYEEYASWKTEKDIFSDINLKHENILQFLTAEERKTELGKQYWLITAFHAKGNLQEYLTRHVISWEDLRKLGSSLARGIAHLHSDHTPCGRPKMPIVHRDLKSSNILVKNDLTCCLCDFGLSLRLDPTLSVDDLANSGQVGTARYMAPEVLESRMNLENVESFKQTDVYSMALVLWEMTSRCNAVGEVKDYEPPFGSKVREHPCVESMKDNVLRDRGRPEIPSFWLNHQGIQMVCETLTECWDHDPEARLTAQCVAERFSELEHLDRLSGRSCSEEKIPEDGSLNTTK

Take `CC(C)(C)NC(=O)N1CC(n2cnc(-c3ccc(F)cc3)c2-c2ccc3ncc(C(N)=O)n3n2)C1` [Example 195′, 6-(1-(1-(tert-butylcarbamoyl)azetidin-3-yl)-4-(4-fluorophenyl)-1H-imidazol-5-yl)imidazo[1,2-b]pyridazine-3-carboxamide]: the IC50 on HIS-TGF-βR1 T204D is 436 nM; at HIS-TGF-βR2 WT, greater than 15000 nM.
On the same counts, the results for `N#Cc1cnc2ccc(-c3c(-c4ccc(F)cc4)ncn3C3CN(C(=O)C4CC4)C3)nn12` [Example 192′, 6-(1-(1-(cyclopropanecarbonyl)azetidin-3-yl)-4-(4-fluorophenyl)-1H-imidazol-5-yl)imidazo[1,2-b]pyridazine-3-carbonitrile] are 229 nM and greater than 15000 nM.
Consider `COC(=O)Nc1cnc2ccc(-c3c(-c4ccc(F)cc4)ncn3CC(F)F)nn12` [Example 211′, methyl (6-(1-(2,2-difluoroethyl)-4-(4-fluorophenyl)-1H-imidazol-5-yl)imidazo[1,2-b]pyridazin-3-yl)carbamate], for which the values for the IC50 on HIS-TGF-βR1 T204D and at HIS-TGF-βR2 WT were 4.5 nM and greater than 15000 nM, respectively.
In the case of `CC(C)(C)OC(=O)N1CC(n2cnc(-c3ccc(F)cc3)c2-c2ccc3ncc(C(N)=O)n3n2)C1` [195A′, tert-butyl 3-(5-(3-carbamoylimidazo[1,2-b]pyridazin-6-yl)-4-(4-fluorophenyl)-1H-imidazol-1-yl)azetidine-1-carboxylate], the figures for the IC50 on HIS-TGF-βR1 T204D and on HIS-TGF-βR2 WT were 244 nM and greater than 15000 nM, respectively.
For `CC(=O)NCc1cnc2ccc(-c3c(-c4ccc(F)cc4)ncn3CC(F)F)nn12` [Example 197′, N-((6-(1-(2,2-difluoroethyl)-4-(4-fluorophenyl)-1H-imidazol-5-yl)imidazo[1,2-b]pyridazin-3-yl)methyl)acetamide], the IC50 on HIS-TGF-βR1 T204D is 11.9 nM; at HIS-TGF-βR2 WT it was greater than 15000 nM.
`Fc1ccc(-c2ncn(CC(F)F)c2-c2ccc3ncc(CNC4CC(F)(F)C4)n3c2)cc1` [276′, N-((6-(1-(2,2-difluoroethyl)-4-(4-fluorophenyl)-1H-imidazol-5-yl)imidazo[1,2-a]pyridin-3-yl)methyl)-3,3-difluorocyclobutanamine]: the IC50 on HIS-TGF-βR1 T204D was 988 nM; at HIS-TGF-βR2 WT, greater than 15000 nM.
Turning to `CC(C)(C)C(=O)NCc1cnc2ccc(-c3c(-c4ccc(F)cc4)ncn3CC(F)F)nn12` [Example 202′, N-((6-(1-(2,2-difluoroethyl)-4-(4-fluorophenyl)-1H-imidazol-5-yl)imidazo[1,2-b]pyridazin-3-yl)methyl)pivalamide], the IC50 at HIS-TGF-βR1 T204D was 43.8 nM; at HIS-TGF-βR2 WT it was greater than 15000 nM.
On to `NC(=O)c1cnc2ccc(-c3c(-c4ccc(F)cc4)ncn3C3CCC(F)(F)C3)nn12` (stereo not shown) [108′, 6-(1-(3,3-difluorocyclopentyl)-4-(4-fluorophenyl)-1H-imidazol-5-yl)imidazo[1,2-b]pyridazine-3-carboxamide], for which the results for the IC50 on HIS-TGF-βR1 T204D and at HIS-TGF-βR2 WT were 2.1 nM and greater than 15000 nM, respectively.
With `COCC(C1CC1)n1cnc(-c2ccc(F)cc2)c1-c1ccc2ncc(C(N)=O)n2n1` (stereo not shown) [130′, 6-(1-(1-cyclopropyl-2-methoxyethyl)-4-(4-fluorophenyl)-1H-imidazol-5-yl)imidazo[1,2-b]pyridazine-3-carboxamide], the IC50 on HIS-TGF-βR1 T204D is 2.1 nM; on HIS-TGF-βR2 WT, greater than 15000 nM.
In the case of `O=C(NC1CC1)c1cnc2ccc(-c3c(-c4ccc(F)cc4)ncn3CC(F)F)nn12` [208′, N-cyclopropyl-6-(1-(2,2-difluoroethyl)-4-(4-fluorophenyl)-1H-imidazol-5-yl)imidazo[1,2-b]pyridazine-3-carboxamide], the IC50 on HIS-TGF-βR1 T204D is 1.2 nM; on HIS-TGF-βR2 WT, greater than 15000 nM.
On the same counts, the results for `N#Cc1cnc2ccc(-c3c(-c4cccc(C(F)(F)F)c4)ncn3CC(F)F)nn12` [243′, 6-(1-(2,2-difluoroethyl)-4-(3-(trifluoromethyl)phenyl)-1H-imidazol-5-yl)imidazo[1,2-b]pyridazine-3-carbonitrile] are 1.8 nM and greater than 15000 nM.
The matching figures for `CC(C)(O)CCn1cnc(-c2ccc(F)c(Cl)c2)c1-c1ccc2ncc(C(N)=O)n2n1` [139′, 6-(4-(3-chloro-4-fluorophenyl)-1-(3-hydroxy-3-methylbutyl)-1H-imidazol-5-yl)imidazo[1,2-b]pyridazine-3-carboxamide]: 5.2 nM and greater than 15000 nM.
On the same counts, the results for `N#Cc1cnc2ccc(-c3c(-c4ccc(C(F)(F)F)cc4)ncn3CC(F)F)nn12` [244′, 6-(1-(2,2-difluoroethyl)-4-(4-(trifluoromethyl)phenyl)-1H-imidazol-5-yl)imidazo[1,2-b]pyridazine-3-carbonitrile] are 546 nM and greater than 15000 nM.
For `CC(C)(O)c1cccc(-c2ncn(CC(F)F)c2-c2ccc3ncc(C#N)n3n2)c1` [265′, 6-(1-(2,2-difluoroethyl)-4-(3-(2-hydroxypropan-2-yl)phenyl)-1H-imidazol-5-yl)imidazo[1,2-b]pyridazine-3-carbonitrile], the IC50 at HIS-TGF-βR1 T204D is 9.8 nM; on HIS-TGF-βR2 WT, greater than 15000 nM.
With `N#Cc1cnc2ccc(-c3c(-c4ccc(F)c(Cl)c4)ncn3C3CC(F)(F)C3)cn12` [99′, 6-(4-(3-chloro-4-fluorophenyl)-1-(3,3-difluorocyclobutyl)-1H-imidazol-5-yl)imidazo[1,2-a]pyridine-3-carbonitrile], the IC50 on HIS-TGF-βR1 T204D was 65.7 nM; on HIS-TGF-βR2 WT, greater than 15000 nM.
Take `N#Cc1cnc2ccc(-c3c(-c4ccc(F)cc4)ncn3C3CCC(F)(F)CC3)nn12` [8′, 6-(1-(4,4-difluorocyclohexyl)-4-(4-fluorophenyl)-1H-imidazol-5-yl)imidazo[1,2-b]pyridazine-3-carbonitrile]: the IC50 on HIS-TGF-βR1 T204D was 17.9 nM; on HIS-TGF-βR2 WT, greater than 15000 nM.
In the case of `NC(=O)c1cnc2ccc(-c3c(-c4ccc(F)c(Cl)c4)ncn3CCN3CCOCC3)cn12` [120′, 6-(4-(3-chloro-4-fluorophenyl)-1-(2-morpholinoethyl)-1H-imidazol-5-yl)imidazo[1,2-a]pyridine-3-carboxamide], the IC50 on HIS-TGF-βR1 T204D was 6.5 nM; at HIS-TGF-βR2 WT it was greater than 15000 nM.
Turning to `CS(=O)(=O)Nc1ccccc1-c1ncn(CC(F)F)c1-c1ccc2ncc(C#N)n2n1` [239′, N-(2-(5-(3-cyanoimidazo[1,2-b]pyridazin-6-yl)-1-(2,2-difluoroethyl)-1H-imidazol-4-yl)phenyl)methanesulfonamide], the IC50 at HIS-TGF-βR1 T204D was 521 nM; at HIS-TGF-βR2 WT it was greater than 15000 nM.
The matching figures for `N#Cc1cnc2ccc(-c3c(-c4ccc(F)c(Cl)c4)ncn3C3CCOCC3)nn12` [48′, 6-(4-(3-chloro-4-fluorophenyl)-1-(tetrahydro-2H-pyran-4-yl)-1H-imidazol-5-yl)imidazo[1,2-b]pyridazine-3-carbonitrile]: 3.1 nM and greater than 15000 nM.
The matching figures for `Fc1ccc(-c2ncn(CC(F)F)c2-c2ccc3ncc(N4CCOCC4)n3c2)cc1` [Example 289′, 4-(6-(1-(2,2-difluoroethyl)-4-(4-fluorophenyl)-1H-imidazol-5-yl)imidazo[1,2-a]pyridin-3-yl)morpholine]: 376 nM and greater than 15000 nM.
Regarding `N#Cc1cnc2ccc(-c3c(-c4ccc(F)c(Cl)c4)ncn3CCN3CCOCC3)cn12` [95′, 6-(4-(3-chloro-4-fluorophenyl)-1-(2-morpholinoethyl)-1H-imidazol-5-yl)imidazo[1,2-c]pyridine-3-carbonitrile], the concentration for half-maximal inhibition (IC50) on HIS-TGF-βR1 T204D is 76.8 nM; on HIS-TGF-βR2 WT, greater than 15000 nM.
With `N#Cc1cnc2ccc(-c3c(-c4ccc(F)cc4)ncn3[C@H](CO)CC(F)(F)F)nn12` [29′, (S)-6-(4-(4-fluorophenyl)-1-(4,4,4-trifluoro-1-hydroxybutan-2-yl)-1H-imidazol-5-yl)imidazo[1,2-b]pyridazine-3-carbonitrile], the IC50 at HIS-TGF-βR1 T204D was 6.4 nM; at HIS-TGF-βR2 WT, greater than 15000 nM.
On to `CC(C)(O)CCn1cnc(-c2ccc(F)cc2)c1-c1ccc2ncc(C(N)=O)n2n1` [131′, 6-(4-(4-fluorophenyl)-1-(3-hydroxy-3-methylbutyl)-1H-imidazol-5-yl)imidazo[1,2-b]pyridazine-3-carboxamide], for which the concentration for half-maximal inhibition (IC50) was 28.1 nM at HIS-TGF-βR1 T204D and greater than 15000 nM on HIS-TGF-βR2 WT.
Take `CCOC(=O)c1cnc2ccc(-c3c(-c4ccc(F)cc4)ncn3CC(F)F)cn12` [274C′, ethyl 6-(1-(2,2-difluoroethyl)-4-(4-fluorophenyl)-1H-imidazol-5-yl)imidazo[1,2-a]pyridine-3-carboxylate]: the IC50 is 7 nM at HIS-TGF-βR1 T204D and greater than 15000 nM on HIS-TGF-βR2 WT.
As for `CS(=O)(=O)c1cccc(-c2ncn(CC(F)F)c2-c2ccc3ncc(C#N)n3n2)c1` [254′, 6-(1-(2,2-difluoroethyl)-4-(3-(methylsulfonyl)phenyl)-1H-imidazol-5-yl)imidazo[1,2-b]pyridazine-3-carbonitrile], the IC50 is 752 nM on HIS-TGF-βR1 T204D and greater than 15000 nM at HIS-TGF-βR2 WT.
On to `N#Cc1cnc2ccc(-c3c(-c4ccc(F)cc4)ncn3[C@]34CC5CC(C[C@](O)(C5)C3)C4)nn12` (single isomer, unassigned) [269′], for which the IC50 on HIS-TGF-βR1 T204D was 1200 nM; at HIS-TGF-βR2 WT it was greater than 15000 nM.
Turning to `COC(=O)Nc1cnc2ccc(-c3c(-c4ccc(F)cc4)ncn3CC(F)F)cn12` [Example 284′, methyl (6-(1-(2,2-difluoroethyl)-4-(4-fluorophenyl)-1H-imidazol-5-yl)imidazo[1,2-a]pyridin-3-yl)carbamate], the IC50 on HIS-TGF-βR1 T204D is 426 nM; on HIS-TGF-βR2 WT, greater than 15000 nM.
On the same counts, the results for `N#Cc1cnc2ccc(-c3c(-c4ccccc4C(F)(F)F)ncn3CC(F)F)nn12` [246′, 6-(1-(2,2-difluoroethyl)-4-(2-(trifluoromethyl)phenyl)-1H-imidazol-5-yl)imidazo[1,2-b]pyridazine-3-carbonitrile] are 144 nM and greater than 15000 nM.
For the compound `N#Cc1cnc2ccc(-c3c(-c4cccc(OC(F)(F)F)c4)ncn3CC(F)F)nn12` [259′, 6-(1-(2,2-difluoroethyl)-4-(3-(trifluoromethoxy)phenyl)-1H-imidazol-5-yl)imidazo[1,2-b]pyridazine-3-carbonitrile], the IC50 on HIS-TGF-βR1 T204D was 1 nM; on HIS-TGF-βR2 WT it was greater than 15000 nM.

Usually IC50 stands for the concentration that inhibits the measured activity by half.
